Reference: patent publication US20260000692A1, “Substituted N-(Pyridin-2-yl)Acetamide Derivatives as CDK12/13 Inhibitors” (Aurigene Oncology Limited, priority 2022, published 2026)

Target: CDK12 (Homo sapiens, UniProt Q9NYV4)
Assay: Biochemical assay for CDK12 (LANCE TR-FRET, IC50 determination)
Settings: for IC50: CDK12, IC50 class, read-out: IC50 μM (in range); for inhibition at 2 µM: compound at 2 μM (stated in the cell, not the 10 μM of the column head); for inhibition at 10 µM: read-out: CDK12 % Inhibition @ 10 μM
Method in brief: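 30 nM CDK12 phosphorylated 100 nM ULight-4E-BP1 (Thr37/Thr46) peptide at 100 µM ATP, as printed, in HEPES pH 7.5 buffer with MgCl2 and DTT. Compound and enzyme were preincubated 60 min, then reacted 60 min at room temperature before stopping with EDTA and Eu anti-phospho antibody. TR-FRET 665/615 ratio gave sigmoidal IC50 fits.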

CDK12, sequence (Q9NYV4 whole entry): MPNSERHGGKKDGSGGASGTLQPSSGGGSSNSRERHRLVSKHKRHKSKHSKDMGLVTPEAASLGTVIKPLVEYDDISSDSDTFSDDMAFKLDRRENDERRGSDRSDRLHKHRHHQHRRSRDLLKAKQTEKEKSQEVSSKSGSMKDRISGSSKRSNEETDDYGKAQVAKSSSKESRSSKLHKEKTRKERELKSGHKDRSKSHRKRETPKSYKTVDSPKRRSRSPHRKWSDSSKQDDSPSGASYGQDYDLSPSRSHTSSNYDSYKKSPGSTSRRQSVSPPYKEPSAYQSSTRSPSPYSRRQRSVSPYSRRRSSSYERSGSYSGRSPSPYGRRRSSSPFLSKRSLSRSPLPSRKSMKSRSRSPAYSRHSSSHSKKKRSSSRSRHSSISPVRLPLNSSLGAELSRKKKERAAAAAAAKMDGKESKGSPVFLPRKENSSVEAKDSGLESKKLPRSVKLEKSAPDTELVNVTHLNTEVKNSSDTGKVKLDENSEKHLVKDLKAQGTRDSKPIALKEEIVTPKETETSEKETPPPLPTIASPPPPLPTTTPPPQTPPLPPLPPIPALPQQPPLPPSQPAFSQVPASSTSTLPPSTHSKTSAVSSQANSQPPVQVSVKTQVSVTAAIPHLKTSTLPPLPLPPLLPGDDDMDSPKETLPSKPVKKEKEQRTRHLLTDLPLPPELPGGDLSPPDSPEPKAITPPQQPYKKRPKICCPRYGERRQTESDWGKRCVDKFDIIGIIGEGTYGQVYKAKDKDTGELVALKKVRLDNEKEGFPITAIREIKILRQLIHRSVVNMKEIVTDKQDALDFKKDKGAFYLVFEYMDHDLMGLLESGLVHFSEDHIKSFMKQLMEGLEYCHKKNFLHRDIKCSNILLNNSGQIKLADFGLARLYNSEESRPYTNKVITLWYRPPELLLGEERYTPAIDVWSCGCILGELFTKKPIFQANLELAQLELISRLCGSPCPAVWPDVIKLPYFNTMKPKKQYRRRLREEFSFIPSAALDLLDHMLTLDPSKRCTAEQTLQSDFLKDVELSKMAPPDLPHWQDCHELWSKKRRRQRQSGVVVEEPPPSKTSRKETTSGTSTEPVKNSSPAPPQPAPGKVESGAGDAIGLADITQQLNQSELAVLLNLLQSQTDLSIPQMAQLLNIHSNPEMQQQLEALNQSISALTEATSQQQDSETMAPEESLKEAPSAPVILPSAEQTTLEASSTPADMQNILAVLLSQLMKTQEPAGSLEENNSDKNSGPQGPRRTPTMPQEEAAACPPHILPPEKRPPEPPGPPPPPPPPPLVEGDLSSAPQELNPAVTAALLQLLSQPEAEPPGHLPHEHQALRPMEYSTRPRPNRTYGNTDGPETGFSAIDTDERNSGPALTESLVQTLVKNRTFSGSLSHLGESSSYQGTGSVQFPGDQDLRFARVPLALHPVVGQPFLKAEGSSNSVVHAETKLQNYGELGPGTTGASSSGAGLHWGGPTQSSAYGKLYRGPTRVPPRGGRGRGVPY
CDK12, sequence (O75909 whole entry partner): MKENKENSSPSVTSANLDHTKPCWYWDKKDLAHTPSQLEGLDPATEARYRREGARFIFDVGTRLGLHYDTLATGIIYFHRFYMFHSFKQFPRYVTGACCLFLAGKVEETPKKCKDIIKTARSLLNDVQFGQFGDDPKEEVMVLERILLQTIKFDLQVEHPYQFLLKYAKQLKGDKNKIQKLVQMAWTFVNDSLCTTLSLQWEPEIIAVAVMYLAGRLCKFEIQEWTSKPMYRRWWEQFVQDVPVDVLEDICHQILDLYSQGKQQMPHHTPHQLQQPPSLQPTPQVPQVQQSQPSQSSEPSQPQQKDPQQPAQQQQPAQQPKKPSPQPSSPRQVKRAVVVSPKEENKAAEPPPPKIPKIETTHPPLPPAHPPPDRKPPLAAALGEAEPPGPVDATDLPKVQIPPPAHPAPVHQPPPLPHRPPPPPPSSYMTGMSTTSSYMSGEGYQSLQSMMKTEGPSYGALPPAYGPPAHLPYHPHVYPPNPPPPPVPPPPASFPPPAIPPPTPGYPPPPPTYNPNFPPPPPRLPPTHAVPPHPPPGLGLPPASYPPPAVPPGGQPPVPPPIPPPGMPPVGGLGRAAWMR

| SMILES | IC50 [µM] | inhibition at 2 µM [%] | inhibition at 10 µM (compound at 10 μM) [%] | CDK12 % Inhibition @ 10 μM (compound at 10 μM, 10 µM) [%] |
| --- | --- | --- | --- | --- |
| COc1cc(NC(=O)Cc2ccc(-c3ccc(C)c(C#N)n3)nc2)ncc1Cl [Compound 158, N-(5-chloro-4-methoxypyridin-2-yl)-2-(6′-cyano-5′-methyl-[2,2′-bipyridin]-5-yl)acetamide] | > 0.1 | 70 | – | – |
| COc1cc(NC(=O)Cc2ccc(-c3cc(C)cc(C#N)n3)nc2)ncc1Cl [Compound 159, N-(5-chloro-4-methoxypyridin-2-yl)-2-(6′-cyano-4′-methyl-[2,2′-bipyridin]-5-yl)acetamide] | 0.01 to 0.1 | 90 | – | – |
| COc1cc(NC(=O)Cc2ccc(-c3nc(C#N)ccc3C)nc2)ncc1Cl [Compound 160, N-(5-chloro-4-methoxypyridin-2-yl)-2-(6′-cyano-3′-methyl-[2,2′-bipyridin]-5-yl)acetamide] | > 0.1 | – | 76 | – |
| COc1cc(C#N)nc(-c2ccc(CC(=O)Nc3cc(OC)c(Cl)cn3)cn2)c1 [Compound 165, N-(5-chloro-4-methoxypyridin-2-yl)-2-(6′-cyano-4′-methoxy-[2,2′-bipyridin]-5-yl)acetamide] | 0.01 to 0.1 | – | 72 | – |
| COCCOc1cc(C#N)nc(-c2ccc(CC(=O)Nc3cc(OC)c(Cl)cn3)cn2)c1 [Compound 169, N-(5-chloro-4-methoxypyridin-2-yl)-2-(6′-cyano-4′-(2-methoxyethoxy)-[2,2′-bipyridin]-5-yl)acetamide] | 0.01 to 0.1 | – | 95 | – |
| COc1cc(NC(=O)Cc2ccc(-c3cc(OCCN(C)C)cc(C#N)n3)nc2)ncc1Cl [Compound 170, N-(5-chloro-4-methoxypyridin-2-yl)-2-(6′-cyano-4′-(2-(dimethylamino)ethoxy)-[2,2′-bipyridin]-5-yl)acetamide] | 0.01 to 0.1 | – | 90 | – |
| COc1cc(NC(=O)Cc2ccc(-c3cc(OC4CCN(C)C4)cc(C#N)n3)nc2)ncc1Cl (centres unmarked) [Compound 171, N-(5-chloro-4-methoxypyridin-2-yl)-2-(6′-cyano-4′-((1-methylpyrrolidin-3-yl)oxy)-[2,2′-bipyridin]-5-yl)acetamide] | < 0.01 | – | 83 | – |
| COc1cc(NC(=O)Cc2ccc(-c3cc(N(C)CCN(C)C)cc(C#N)n3)nc2)ncc1Cl [Compound 173] | 0.01 to 0.1 | – | 90 | – |
| COc1cc(NC(=O)Cc2ccc(-c3cc(C(C)(C)O)cc(C#N)n3)nc2)ncc1Cl [Compound 175, N-(5-chloro-4-methoxypyridin-2-yl)-2-(6′-cyano-4′-(2-hydroxypropan-2-yl)-[2,2′-bipyridin]-5-yl)acetamide] | 0.01 to 0.1 | – | 97 | – |
| COc1cc(NC(=O)Cc2ccc(-c3cc(OC4CCN(C)CC4)cc(C#N)n3)nc2)ncc1Cl [Compound 176, N-(5-chloro-4-methoxypyridin-2-yl)-2-(6′-cyano-4′-((1-methylpiperidin-4-yl)oxy)-[2,2′-bipyridin]-5-yl)acetamide] | 0.01 to 0.1 | – | 96 | – |
| COc1cc(NC(=O)Cc2ccc(-c3cc(N4CC5CC4CN5C)cc(C#N)n3)nc2)ncc1Cl (centres unmarked) [Compound 181, N-(5-chloro-4-methoxypyridin-2-yl)-2-(6′-cyano-4′-(5-methyl-2,5-diazabicyclo[2.2.1]heptan-2-yl)-[2,2′-bipyridin]-5-yl)acetamide] | 0.01 to 0.1 | – | 92 | – |
| COc1cc(NC(=O)Cc2ccc(-c3cc(N4CC(O)C4)cc(C#N)n3)nc2)ncc1Cl [Compound 182, N-(5-chloro-4-methoxypyridin-2-yl)-2-(6′-cyano-4′-(3-hydroxyazetidin-1-yl)-[2,2′-bipyridin]-5-yl)acetamide] | > 0.1 | – | 75 | – |
| COc1cc(NC(=O)Cc2ccc(-c3cc(OC4COC4)cc(C#N)n3)nc2)ncc1Cl [Compound 184, N-(5-chloro-4-methoxypyridin-2-yl)-2-(6′-cyano-4′-(oxetan-3-yloxy)-[2,2′-bipyridin]-5-yl)acetamide] | 0.01 to 0.1 | – | 80 | – |
| COc1cc(NC(=O)Cc2ccc(-c3ccc(C#N)cc3)nc2)ncc1Cl [Compound 188, N-(5-chloro-4-methoxypyridin-2-yl)-2-(6-(4-cyanophenyl)pyridin-3-yl)acetamide] | > 0.1 | – | 65 | – |
| COc1cc(NC(=O)Cc2ccc(-c3cccc(C#N)c3)nc2)ncc1Cl [Compound 189, N-(5-chloro-4-methoxypyridin-2-yl)-2-(6-(3-cyanophenyl)pyridin-3-yl)acetamide] | > 0.1 | – | 82 | – |
| CNC(=O)[C@H](C)Oc1cc(NC(=O)Cc2ccc(-c3cccc(C#N)n3)nc2)ncc1Cl [Compound 190, 2-((5-chloro-2-(2-(6′-cyano-[2,2′-bipyridin]-5-yl)acetamido)pyridin-4-yl)oxy)-N-methylpropanamide] | < 0.01 | – | 87 | – |
| COc1cc(NC(=O)Cc2ccc(-c3cc(N4CCN(C)CC4)cc(C#N)n3)nc2)ncc1Cl [Compound 191, N-(5-chloro-4-methoxypyridin-2-yl)-2-(6′-cyano-4′-(4-methylpiperazin-1-yl)-[2,2′-bipyridin]-5-yl)acetamide] | 0.01 to 0.1 | – | 94 | – |
| COc1cc(NC(=O)Cc2ccc(-c3cc(N4CCC(C)(O)CC4)cc(C#N)n3)nc2)ncc1Cl [Compound 192, N-(5-chloro-4-methoxypyridin-2-yl)-2-(6′-cyano-4′-(4-hydroxy-4-methylpiperidin-1-yl)-[2,2′-bipyridin]-5-yl)acetamide] | 0.01 to 0.1 | – | 88 | – |
| COc1cc(NC(=O)Cc2ccc(-c3cc(N4CC(OC)C4)cc(C#N)n3)nc2)ncc1Cl [Compound 193, N-(5-chloro-4-methoxypyridin-2-yl)-2-(6′-cyano-4′-(3-methoxyazetidin-1-yl)-[2,2′-bipyridin]-5-yl)acetamide] | > 0.1 | – | 68 | – |
| COc1cc(NC(=O)Cc2ccc(-c3cc(N4CCC(C)(O)C4)cc(C#N)n3)nc2)ncc1Cl (centres unmarked) [Compound 194, N-(5-chloro-4-methoxypyridin-2-yl)-2-(6′-cyano-4′-(3-hydroxy-3-methylpyrrolidin-1-yl)-[2,2′-bipyridin]-5-yl)acetamide] | > 0.1 | – | 94 | – |
| COc1cc(NC(=O)Cc2ccc(-c3cc(N4C[C@H]5CC[C@@H](C4)O5)cc(C#N)n3)nc2)ncc1Cl [Compound 195, 2-(4′-((1R,5S)-8-oxa-3-azabicyclo[3.2.1]octan-3-yl)-6′-cyano-[2,2′-bipyridin]-5-yl)-N-(5-chloro-4-methoxypyridin-2-yl)acetamide] | 0.01 to 0.1 | – | 84 | – |
| COc1cc(NC(=O)Cc2ccc(-c3cc(O[C@H]4CCOC4)cc(C#N)n3)nc2)ncc1Cl [Compound 196, (S)-N-(5-chloro-4-methoxypyridin-2-yl)-2-(6′-cyano-4′-((tetrahydrofuran-3-yl)oxy)-[2,2′-bipyridin]-5-yl)acetamide] | 0.01 to 0.1 | – | 89 | – |
| COc1cc(NC(=O)Cc2ccc(-c3cc(O[C@H]4CCOC4)cc(C#N)n3)nc2)ncc1Cl [Compound 197, (S)-N-(5-chloro-4-methoxypyridin-2-yl)-2-(6′-cyano-4′-((tetrahydrofuran-3-yl)oxy)-[2,2′-bipyridin]-5-yl)acetamide] | 0.01 to 0.1 | – | – | 87 |
| COc1cc(NC(=O)Cc2ccc(-c3cc(OC4CCN(C)CC4F)cc(C#N)n3)nc2)ncc1Cl (centres unmarked) [Compound 198, N-(5-chloro-4-methoxypyridin-2-yl)-2-(6′-cyano-4′-((3-fluoro-1-methylpiperidin-4-yl)oxy)-[2,2′-bipyridin]-5-yl)acetamide] | 0.01 to 0.1 | – | 100 | – |
| COc1cc(NC(=O)Cc2ccc(-c3cc(OC4CCCN(C)C4)cc(C#N)n3)nc2)ncc1Cl (centres unmarked) [Compound 199, N-(5-chloro-4-methoxypyridin-2-yl)-2-(6′-cyano-4′-((1-methylpiperidin-3-yl)oxy)-[2,2′-bipyridin]-5-yl)acetamide] | < 0.01 | – | 88 | – |
